For this assay, the system named is HCT-116. The assay can be described thus: In vitro cytotoxicity against human colon carcinoma cells (HCT116). It is filed as functional, cell-based.

≈ marks a conversion by molar mass, not a printed value.

The term IC50 denotes the concentration that inhibits the measured activity by half. `CC1(C)C2=CC(=O)CC[C@@]1(O)C#C/C=C\C#C[C@H]2O` registered an IC50 of 18 µg/mL (≈ 70.2 µM).

The values are drawn from ChEMBL document CHEMBL1129091, “Synthesis and biological evaluation of a bicyclo [7.4.1]enediyne” (Bioorg Med Chem Lett, 1996).
